According to BindingDB's records for PubMed 8022403 (National Institute of Diabetes, Digestive and Kidney …, 1994):

Key:
Adenosine receptor A2a = Adenosine receptor A2a (Rattus norvegicus, UniProt P30543)
Adenosine receptor A1 = biological target: T1, Adenosine receptor A1 (Rattus norvegicus, UniProt P25099)
T1 sequence (P25099 whole entry): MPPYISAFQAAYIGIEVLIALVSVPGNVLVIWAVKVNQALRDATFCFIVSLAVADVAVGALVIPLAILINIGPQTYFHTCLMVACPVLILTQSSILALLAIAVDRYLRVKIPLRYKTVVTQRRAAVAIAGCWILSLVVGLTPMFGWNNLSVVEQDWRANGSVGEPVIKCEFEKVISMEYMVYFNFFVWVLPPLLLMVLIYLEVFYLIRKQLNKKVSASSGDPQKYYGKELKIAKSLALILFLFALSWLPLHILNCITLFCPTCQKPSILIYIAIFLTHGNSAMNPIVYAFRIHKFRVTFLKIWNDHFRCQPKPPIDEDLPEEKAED

Sequence of Adenosine receptor A2a (P30543 whole entry): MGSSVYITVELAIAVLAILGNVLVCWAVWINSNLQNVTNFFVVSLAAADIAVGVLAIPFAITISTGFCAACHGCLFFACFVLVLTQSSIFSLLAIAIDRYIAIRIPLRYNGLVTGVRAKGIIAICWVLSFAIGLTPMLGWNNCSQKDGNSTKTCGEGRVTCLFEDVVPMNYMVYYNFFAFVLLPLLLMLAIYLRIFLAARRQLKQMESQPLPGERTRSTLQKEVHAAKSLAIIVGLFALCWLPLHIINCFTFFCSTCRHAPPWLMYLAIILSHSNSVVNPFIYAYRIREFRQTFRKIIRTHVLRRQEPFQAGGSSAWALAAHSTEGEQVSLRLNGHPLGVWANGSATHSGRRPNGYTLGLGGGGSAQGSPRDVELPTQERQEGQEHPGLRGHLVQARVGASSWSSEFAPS

Structure (SMILES) | Ki (Adenosine receptor A2a) [µM] | Ki (Adenosine receptor A1) [µM]
CO[C@@H]1[C@H](O)[C@@H](CO)O[C@H]1n1cnc2c(N)ncnc21 | > 10 | > 10
CCCCCC[C@H]([C@H](C)O)n1cnc2c(N)ncnc21 (relative stereo) [3-(6-amino-9H-purin-9-yl)nonan-2-ol] | > 10 | 0.455
Cn1c(=O)[nH]c2c(ncn2C)c1=O [1,9-Dimethylxanthine] | > 10 | > 10
Nc1ncnc2c1ncn2[C@H]1C[C@H](O)[C@@H](CO)O1 [2'deoxyadenosine] | > 10 | > 10
NCC1OC(n2cnc3c(N)ncnc32)C(O)C1O (stereo not given) [2-Aminomethyl-5-(6-amino-purin-9-yl)-tetrahydro-furan-3,4-diol] | 38.5 | –
Nc1nc(S)c2ncn(C3OC(CO)C(O)C3O)c2n1 (stereo not given) [2-azanyl-9-[5-(hydroxymethyl)-3,4-bis(oxidanyl)oxolan-2-yl]-3H-purine-6-thione] | > 10 | > 10
Nc1ncnc2c1ncn2[C@@H]1O[C@H](CO)C[C@H]1O [3'-Deoxyadenosine (cordycepin)] | > 10 | > 10
Cn1cnc2c(=O)[nH]c(=O)n(C)c21 [3,9-dimethyl-3,9-dihydro-1h-purine-2,6-dione] | > 10 | > 10
Nc1ccn([C@@H]2O[C@H](COP(=O)(O)OP(=O)(O)O)[C@@H](O)[C@H]2O)c(=O)n1 [5'-CDP] | > 10 | > 10
CCNC(=O)[C@H]1O[C@@H](n2cnc3c(=O)[nH]cnc32)[C@H](O)[C@@H]1O [5'-N-ethylcarboxamidoinosine] | > 10 | > 10
Cn1cnc2[nH]c(=O)[nH]c(=O)c21 [7-Methylxanthine] | > 10 | > 10
Nc1ncnc2c1nc(Br)n2C1OC(CO)C(O)C1O (stereo not given) [8-Bromoadenosine] | 22.7 | > 10
C[S+](CC[C@H](N)C(=O)[O-])C[C@H]1O[C@@H](n2cnc3c(N)ncnc32)[C@H](O)[C@@H]1O (stereo partly drawn) [(2S)-2-amino-4-({[(2S,3S,4R,5R)-5-(6-amino-9H-purin-9-yl)-3,4-dihydroxyoxolan-2-yl]methyl}(methyl)sulfanylium)butanoate] | 2.78 | 0.675
O=c1[nH]c(=O)c2ncn(C3OC(COP(=O)(O)O)C(O)C3O)c2[nH]1 (stereo not given) [CAS_146-80-5] | > 10 | > 10
O=c1[nH]c(=O)c2[nH]c(Cl)nc2[nH]1 [CAS_13548-68-0] | > 10 | > 10
OCC1OC(n2cnc3c(S)ncnc32)C(O)C1O (stereo not given) [NSC_1867] | – | > 10
Nc1nc2c(ncn2[C@H]2O[C@@H](COP(=O)(O)O)[C@H](O)[C@@H]2O)c(=O)[nH]1 [NSC_6804] | 85.1 | 27.8
Nc1ncnc2c1N([C@H]1O[C@@H](CO)[C@H](O)[C@@H]1O)CN2 [T-7-Riboside] | – | 27
Nc1ncnc2c1ncn2[C@@H]1O[C@H](COP(=O)(O)O)[C@@H](O)[C@H]1O [adenosine 5 -monophosphate] | > 10 | –
Nc1ncnc2c1ncn2[C@@]1(CO)O[C@H](CO)[C@@H](O)[C@H]1O [beta-D-Psicofuranosyladenine] | > 10 | > 10
O=c1ccn(C2OC(COP(=O)(O)OP(=O)(O)O)C(O)C2O)c(=O)[nH]1 (stereo not given) [hydrogen ({[5-(2,4-dioxo-1,2,3,4-tetrahydropyrimidin-1-yl)-3,4-dihydroxyoxolan-2-yl]methylphosphonato}oxy)phosphonate] | > 10 | > 10
Cc1cn([C@H]2C[C@H](O)[C@@H](CO)O2)c(=O)[nH]c1=O [thymidine] | > 10 | > 10
